Read-outs that look alike come from different tables or passages of the source.
Biological target: T1, OGDH (Rattus norvegicus, UniProt Q5XI78)
T1 sequence (Q5XI78 41-1023): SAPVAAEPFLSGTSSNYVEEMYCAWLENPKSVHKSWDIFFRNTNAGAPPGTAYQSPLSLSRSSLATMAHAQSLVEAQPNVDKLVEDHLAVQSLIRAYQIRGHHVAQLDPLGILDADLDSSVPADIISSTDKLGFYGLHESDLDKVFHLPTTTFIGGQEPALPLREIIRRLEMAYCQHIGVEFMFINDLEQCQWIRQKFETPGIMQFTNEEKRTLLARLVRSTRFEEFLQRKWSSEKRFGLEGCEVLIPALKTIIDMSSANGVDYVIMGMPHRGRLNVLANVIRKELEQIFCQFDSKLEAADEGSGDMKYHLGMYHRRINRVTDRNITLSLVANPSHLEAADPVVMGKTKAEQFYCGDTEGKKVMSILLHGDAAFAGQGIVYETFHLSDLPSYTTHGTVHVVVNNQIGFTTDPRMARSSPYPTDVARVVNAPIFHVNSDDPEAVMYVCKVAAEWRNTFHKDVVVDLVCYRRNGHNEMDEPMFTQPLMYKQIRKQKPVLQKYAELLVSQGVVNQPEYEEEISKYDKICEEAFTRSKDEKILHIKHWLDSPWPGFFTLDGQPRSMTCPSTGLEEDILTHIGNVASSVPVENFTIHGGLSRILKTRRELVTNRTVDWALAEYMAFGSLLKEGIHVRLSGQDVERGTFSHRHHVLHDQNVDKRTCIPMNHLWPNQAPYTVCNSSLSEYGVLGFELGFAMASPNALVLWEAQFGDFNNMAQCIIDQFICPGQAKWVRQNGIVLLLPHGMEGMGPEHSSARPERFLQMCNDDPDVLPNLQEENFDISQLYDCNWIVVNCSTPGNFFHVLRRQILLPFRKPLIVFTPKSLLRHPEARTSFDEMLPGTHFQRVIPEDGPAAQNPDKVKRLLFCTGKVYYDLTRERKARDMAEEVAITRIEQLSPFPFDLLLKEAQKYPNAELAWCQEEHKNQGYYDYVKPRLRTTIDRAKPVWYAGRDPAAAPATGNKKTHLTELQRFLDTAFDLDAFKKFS
T1 sequence (Q01205 69-454 partner): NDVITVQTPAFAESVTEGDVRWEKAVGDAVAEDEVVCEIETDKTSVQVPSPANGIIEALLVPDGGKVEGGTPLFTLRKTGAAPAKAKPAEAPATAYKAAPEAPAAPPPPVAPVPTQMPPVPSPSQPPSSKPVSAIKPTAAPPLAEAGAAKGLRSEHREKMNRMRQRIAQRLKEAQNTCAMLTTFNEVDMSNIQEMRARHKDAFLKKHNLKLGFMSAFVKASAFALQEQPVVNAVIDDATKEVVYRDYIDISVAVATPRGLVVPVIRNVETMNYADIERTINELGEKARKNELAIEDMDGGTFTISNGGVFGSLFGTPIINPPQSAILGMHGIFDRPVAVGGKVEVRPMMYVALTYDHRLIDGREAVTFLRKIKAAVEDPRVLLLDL
T1 sequence (Q6P6R2 36-509 partner): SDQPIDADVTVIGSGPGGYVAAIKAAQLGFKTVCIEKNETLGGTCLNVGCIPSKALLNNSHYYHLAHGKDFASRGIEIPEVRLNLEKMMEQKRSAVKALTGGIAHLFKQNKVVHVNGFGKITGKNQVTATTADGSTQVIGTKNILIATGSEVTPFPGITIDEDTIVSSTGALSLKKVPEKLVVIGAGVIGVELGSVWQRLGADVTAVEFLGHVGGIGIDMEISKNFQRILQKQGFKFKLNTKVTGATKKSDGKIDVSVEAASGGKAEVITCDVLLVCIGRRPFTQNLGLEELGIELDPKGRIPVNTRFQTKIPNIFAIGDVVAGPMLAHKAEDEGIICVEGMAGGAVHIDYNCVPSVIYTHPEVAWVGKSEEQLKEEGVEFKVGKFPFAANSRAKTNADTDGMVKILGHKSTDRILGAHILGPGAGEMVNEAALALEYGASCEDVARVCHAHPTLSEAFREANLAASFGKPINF
Assay: OADH reaction (OA saturation) catalyzed by the enzyme preparation from rat heart
Assay type: biochemical
Parameters: the tissue fractions with the complexes enriched to a degree allowing for a robust detection of the enzymatic activities, have been used; from tissue; host or cells: rat heart
Settings: for Ki / Amax: OADH reaction, heart
Protocol: Enzymes catalyzing OGDH and OADH reactions were enriched from rat hearts and livers using polyethylene glycol precipitation, as previously described (Artiukhov et al., [2020]).
The enzyme activities were assayed in the medium (pH 7.0) containing 50 mM MOPS, 1 mM ThDP, 1 mM MgCl2, 1 mM CaCl2, 1 mM dithiothreitol 0.15 mM Coenzyme A, 0.25 mM NAD^+ and various concentrations of 2-oxo substrates (0–10 mM OG or OA) and their phosphonate analogs (0–5,000 μM SP, GP, or AP). Reactions were started by addition of the enzyme preparations to the assay media. The amount of enzyme preparations (0.074 mg protein for the preparation from liver and 0.023 mg protein for the preparation from heart) were chosen to induce the lowest reliably measured reaction rate (ΔA340 = 0.001/min) at 0.01 mM OA without the phosphonates.
Reaction rates were calculated from linear parts of the product accumulation curves (up to 10 min, dependent on the reaction rate), excluding the initial region, where mixing the reagents and solubilization of the preparation affected the optical density.
Non-linear regression was used to approximate the experimental dependences of the reaction rates on the OG or OA concentration according to the Michaelis-Menten equation ( a=Amax*[S]/Km+[S] ) or its sum ( a=Amax*[S]/Km+[S]+Amax,2*[S]/Km,2+[S] ). The former equation describes one type of the active sites. […] The assumption was based on the presence of the two enzymes, OGDH and OADH, in the employed preparations.
The kinetic data were also analyzed by linear regression, using the known methods of the linearization of the Michaelis-Menten equation in the Lineweaver-Burk ( 1/a=1/Amax(1+Km/[S]) ) and Eadie-Hofstee ( a=Amax−Kmv/[S] ) coordinates. Due to the several orders of magnitude difference in the values of Km,1 and Km,2, the linear regression required separate analysis of the dependencies in the intervals of the low and high concentrations of 2-oxoadipate. The Km and Amax values obtained in independent experiments using the non-linear and linear regression analyses of the experimental data, were averaged and presented as Mean ± Standard Error of Mean.
To determine the inhibition constants (Ki), the effective values of Kmeff and Amaxeff , calculated from the hyperbolic or linear approximations as described above, were plotted against the concentration of the inhibitors ([I]). The linear regression of the equation Kmeff/Amaxeff=Km/Amax(1+[I]/Ki) , (Cornish-Bowden, [1979]) was applied to find the Intercept (Km/Amax) and Slope (Km/(Amax*Ki)) of a dependence. The values of Ki were determined as the ratio of the corresponding Intercepts to the Slopes. In the two-site model, the Ki(1) and Ki(2) were calculated separately from the linear approximations of Km,1eff/Amax,1eff vs. [I] and Km,2eff/Amax,2eff vs. [I] dependences, respectively. The standard errors of Ki were determined from means and standard errors of the Intercepts and the Slopes, using the previously described formula for standard deviation of a fraction (Bunik et al., [1999]). The Ki values obtained from the non-linear and linear regression analyses of the experimental data were averaged and presented as Mean ± Standard Error of Mean.

[1] = 0–10 mM OA, Michaelis-Menten, read-out: Ki, MM
[2] = Eadie-Hofstee, read-out: Ki, EH
[3] = Lineweaver-Burk, read-out: Ki, LB
[4] = average of MM, LB, EH, read-out: Ki, Average

Amax, OA saturation (heart preparation) | Structure (SMILES) | Ki [1] [µM] | Ki [2] [µM] | Ki [3] [µM] | Ki [4] [µM] | Amax ([I] 0.5 µM) | Amax ([I] 2 µM) | Amax ([I] 10 µM) | Amax ([I] 50 µM) | Amax ([I] 200 µM) | Amax ([I] 1000 µM)
– | O=C(O)CCCCC(=O)P(=O)(O)O [AP, adipoyl phosphonate] | 49 ± 8 | 40 ± 7 | 58 ± 8 | 49 ± 5 | 0.101 ± 0.002 µmol/min per mg of protein | 0.096 ± 0.002 µmol/min per mg of protein | 0.098 ± 0.002 µmol/min per mg of protein | 0.109 ± 0.002 µmol/min per mg of protein | 0.116 ± 0.002 µmol/min per mg of protein | –
– | O=C(O)CCCC(=O)P(=O)(O)O [GP, glutaryl phosphonate] | 3.8 ± 0.1 | 3.4 ± 0.5 | 1.1 ± 0.2 | 2.8 ± 0.8 | – | 0.105 ± 0.003 µmol/min per mg of protein | 0.131 ± 0.002 µmol/min per mg of protein | 0.139 ± 0.010 µmol/min per mg of protein | 0.103 ± 0.018 µmol/min per mg of protein | –
0.102 ± 0.008 μmol/min per mg of protein | O=C(O)CCCC(=O)C(=O)O [OA, 2-oxoadipate] | – | – | – | – | – | – | – | – | – | –
– | O=C(O)CCC(=O)P(=O)(O)O [SP, succinyl phosphonate] | 10.2 ± 0.2 | 6.3 ± 0.1 | 4.7 ± 0.3 | 7.1 ± 1.6 | – | – | 0.109 ± 0.001 µmol/min per mg of protein | 0.109 ± 0.006 µmol/min per mg of protein | 0.106 ± 0.004 µmol/min per mg of protein | 0.075 ± 0.123 µmol/min per mg of protein
